#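 Compound exposure: 48 hours, 5 concentrations, 96-well plates. GI50: concentration for 50% inhibition of growth.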 Activity calls are given as the source filed them. Rule as the data show it: active = GI50 up to about 1.1 µM and inactive = higher.
# Tests used:
# Assay in all cases: NCI anticancer screen, dose series, 48 h
# HOP-62 = system: HOP-62
# Malme-3M = system: Malme-3M
# RXF 393 = system: RXF 393
# IGROV-1 = system: IGROV-1
# NCI-H23 = system: NCI-H23
# KM-20L2 = system: KM-20L2
# UACC-62 = system: UACC-62
# LOX IMVI = system: LOX IMVI
# SK-MEL-2 = system: SK-MEL-2
# NCI-H522 = system: NCI-H522
# HCC 2998 = system: HCC 2998
# MOLT-4 = system: MOLT-4
# DMS-273 = system: DMS-273
# M14 = system: M14
# SN12C = system: SN12C
# HCT-116 = system: HCT-116
# SW-620 = system: SW-620
# K562 = system: K562
# HOP-92 = system: HOP-92
# SNB-78 = system: SNB-78
# NCI-H460 = system: NCI-H460
# XF498 = system: XF498
# UO-31 = system: UO-31
# COLO 205 = system: COLO 205
# CAKI-1 = system: CAKI-1
# SK-MEL-5 = system: SK-MEL-5
# OVCAR-8 = system: OVCAR-8
# HCT-15 = system: HCT-15
# 786-0 = system: 786-0
# SF-295 = system: SF-295
# A549 = system: A549
# OVCAR-5 = system: OVCAR-5
# HL-60 = system: HL-60
# CCRF-CEM = system: CCRF-CEM
# KM12 = system: KM12
# ACHN = system: ACHN
# SNB-75 = system: SNB-75
# DMS-114 = system: DMS-114
# U-251 = system: U-251
# M19-MEL = system: M19-MEL
# NCI-H226 = system: NCI-H226
# HOP-18 = system: HOP-18
# EKVX = system: EKVX
# RPMI-8226 = system: RPMI-8226
# SF-268 = system: SF-268
# SNB-19 = system: SNB-19
# SF-539 = system: SF-539
# LXFL 529 = system: LXFL 529
# UACC-257 = system: UACC-257
# OVCAR-4 = system: OVCAR-4
# A498 = system: A498
# HT-29 = system: HT-29
# TK-10 = system: TK-10
# DLD-1 = system: DLD-1
# SK-MEL-28 = system: SK-MEL-28
# OVCAR-3 = system: OVCAR-3
# SK-OV-3 = system: SK-OV-3
# SR = system: SR
structure (smiles),measurement,setting,value
CCOc1ccc(C(CN2CCOCC2)C(C)=O)cc1OC (stereo not drawn),GI50,HOP-62,21 µM (inactive)
same,GI50,Malme-3M,18.5 µM (inactive)
same,GI50,RXF 393,21 µM (inactive)
same,GI50,IGROV-1,25.2 µM (inactive)
same,GI50,NCI-H23,18.6 µM (inactive)
same,GI50,KM-20L2,18.8 µM (inactive)
same,GI50,UACC-62,17.3 µM (inactive)
same,GI50,LOX IMVI,17 µM (inactive)
same,GI50,SK-MEL-2,14.3 µM (inactive)
same,GI50,NCI-H522,1.22 µM (inactive)
same,GI50,HCC 2998,18.4 µM (inactive)
same,GI50,MOLT-4,21.9 µM (inactive)
same,GI50,DMS-273,11.3 µM (inactive)
same,GI50,M14,17.5 µM (inactive)
same,GI50,SN12C,17.4 µM (inactive)
same,GI50,HCT-116,20.4 µM (inactive)
same,GI50,SW-620,16.4 µM (inactive)
same,GI50,K562,3.1 µM (inactive)
same,GI50,HOP-92,18.9 µM (inactive)
same,GI50,SNB-78,20.7 µM (inactive)
same,GI50,NCI-H460,18.4 µM (inactive)
same,GI50,XF498,25.3 µM (inactive)
same,GI50,UO-31,14.6 µM (inactive)
same,GI50,COLO 205,6.62 µM (inactive)
same,GI50,CAKI-1,10.8 µM (inactive)
same,GI50,SK-MEL-5,20.1 µM (inactive)
same,GI50,OVCAR-8,20.1 µM (inactive)
same,GI50,HCT-15,10 µM
same,GI50,786-0,3.53 µM (inactive)
same,GI50,SF-295,39.6 µM (inactive)
same,GI50,A549,24.6 µM (inactive)
same,GI50,OVCAR-5,19 µM (inactive)
same,GI50,HL-60,3.78 µM (inactive)
same,GI50,CCRF-CEM,9.4 µM (inactive)
same,GI50,KM12,15.3 µM (inactive)
same,GI50,ACHN,14.2 µM (inactive)
same,GI50,SNB-75,18.7 µM (inactive)
same,GI50,DMS-114,15.7 µM (inactive)
same,GI50,U-251,18 µM (inactive)
same,GI50,M19-MEL,18.9 µM (inactive)
same,GI50,NCI-H226,17.7 µM (inactive)
same,GI50,HOP-18,16.2 µM (inactive)
same,GI50,EKVX,22.6 µM (inactive)
same,GI50,RPMI-8226,11.5 µM (inactive)
same,GI50,SF-268,19.7 µM (inactive)
same,GI50,SNB-19,17.1 µM (inactive)
same,GI50,SF-539,16 µM (inactive)
same,GI50,LXFL 529,4.46 µM (inactive)
same,GI50,UACC-257,22.1 µM (inactive)
same,GI50,OVCAR-4,18.3 µM (inactive)
same,GI50,A498,26.5 µM (inactive)
same,GI50,HT-29,19.6 µM (inactive)
same,GI50,TK-10,17.1 µM (inactive)
same,GI50,DLD-1,10.6 µM (inactive)
same,GI50,SK-MEL-28,19.1 µM (inactive)
Cc1cc2c(C)n(Cc3ccc(Cl)cc3Cl)nc2c(C#N)c1C,GI50,OVCAR-3,34.7 µM (inactive)
same,GI50,HOP-62,20 µM (inactive)
same,GI50,Malme-3M,24.9 µM (inactive)
same,GI50,RXF 393,15.3 µM (inactive)
same,GI50,IGROV-1,41 µM (inactive)
same,GI50,NCI-H23,41.7 µM (inactive)
same,GI50,KM-20L2,36.5 µM (inactive)
same,GI50,UACC-62,> 100 µM (inactive)
same,GI50,LOX IMVI,49.5 µM (inactive)
same,GI50,SK-MEL-2,> 61.4 µM (inactive)
same,GI50,NCI-H522,38.5 µM (inactive)
same,GI50,HCC 2998,> 100 µM (inactive)
same,GI50,MOLT-4,> 100 µM (inactive)
same,GI50,DMS-273,50.8 µM (inactive)
same,GI50,M14,49 µM (inactive)
same,GI50,SN12C,53.3 µM (inactive)
same,GI50,HCT-116,29.8 µM (inactive)
same,GI50,SW-620,> 100 µM (inactive)
same,GI50,K562,> 100 µM (inactive)
same,GI50,HOP-92,13.6 µM (inactive)
same,GI50,SNB-78,24.4 µM (inactive)
same,GI50,NCI-H460,35.9 µM (inactive)
same,GI50,XF498,15.8 µM (inactive)
same,GI50,SK-OV-3,19.1 µM (inactive)
same,GI50,UO-31,52.8 µM (inactive)
same,GI50,COLO 205,> 95.5 µM (inactive)
same,GI50,CAKI-1,41.8 µM (inactive)
same,GI50,SK-MEL-5,85.3 µM (inactive)
same,GI50,OVCAR-8,14.8 µM (inactive)
same,GI50,HCT-15,> 100 µM
same,GI50,786-0,13.6 µM (inactive)
same,GI50,SF-295,18.2 µM (inactive)
same,GI50,A549,28.2 µM (inactive)
same,GI50,OVCAR-5,> 42.1 µM (inactive)
same,GI50,HL-60,> 100 µM (inactive)
same,GI50,CCRF-CEM,> 100 µM (inactive)
same,GI50,KM12,> 100 µM (inactive)
same,GI50,ACHN,49 µM (inactive)
same,GI50,SNB-75,7.94 µM (inactive)
same,GI50,DMS-114,36.4 µM (inactive)
same,GI50,U-251,22.1 µM (inactive)
same,GI50,SR,> 100 µM (inactive)
same,GI50,M19-MEL,73.8 µM (inactive)
same,GI50,NCI-H226,> 42.2 µM (inactive)
same,GI50,HOP-18,40.8 µM (inactive)
same,GI50,EKVX,57.1 µM (inactive)
same,GI50,RPMI-8226,99.3 µM (inactive)
same,GI50,SF-268,32.3 µM (inactive)
same,GI50,SNB-19,15.7 µM (inactive)
same,GI50,SF-539,27.2 µM (inactive)
same,GI50,LXFL 529,59.6 µM (inactive)
same,GI50,UACC-257,> 100 µM (inactive)
same,GI50,OVCAR-4,9.89 µM (inactive)
same,GI50,A498,65.8 µM (inactive)
same,GI50,HT-29,55.5 µM (inactive)
same,GI50,TK-10,23.7 µM (inactive)
same,GI50,DLD-1,> 100 µM (inactive)
same,GI50,SK-MEL-28,36 µM (inactive)
